“Also recorded” adds a separate entry of the source. Where a SMILES comes first, the peptide text is derived from it. Bridges are numbered along the chain shown (N, C = ends). [ ]: non-standard residue; d: D form. Ala(cPent) = N[C@@H](CC1CCCC1)C(=O)O; AllylGly = C=CC[C@H](N)C(=O)O
Experiments:
[1] = Body temperature (hypothermia) after intrathecal injection; assay type: in vivo, rat; settings: vs saline
Procedure: Body temperature was measured using a thermistor probe inserted into the rectum of the rats. Animals were individually acclimatized to manipulations and thermistor probe 5 min/day for three consecutive days. […] Changes in body temperature (Δ body temperature) were determined from baseline for each time and each animal. Data represents the mean±SEM of 5-6 rats for each condition.
Data are expressed as mean±standard errors of the mean (SEM). All graphs and statistical analysis were performed using GraphPad Prism™ 7 (GraphPad software, La Jolla, CA, USA). […] A two-way ANOVA followed by Tukey's multiple comparisons test was used to determine the significant differences in changes in body temperature between different concentrations of compounds and saline (FIG. 9). The % MPE for the tail-flick test and the areas under the curve for the formalin test were analyzed using a one-way ANOVA followed by a Dunnett's multiple comparisons test to compare different concentrations of compounds and saline treatment (FIGS. 2B, 4B, 7A-B and 8B-D). […] Nonlinear regression using three parameters was performed for % of ileum relaxation and IC50 value was obtained from the resulting dose-response curve (FIG. 11). A difference in response was considered significant with p-values *p<0.05, **p<0.01, ***p<0.001 and **p<0.0001.

[2] = Blood pressure measurements after intravenous injection
Procedure: Mean, systolic and diastolic arterial blood pressure and a heart rate were measured through a catheter (PE 50 filled with heparinized saline) inserted in the right carotid artery and connected to a Micro-Med transducer (model TDX-300, USA) linked to a blood pressure Micro-Med analyzer (model BPA-100c). […] Blood pressure was recorded each second for up to 1000 seconds following intravenous injection. […] Data represents the mean±SEM of 4-5 rats for each condition.

Sprague-Dawley rats = test: Formalin test (tonic pain model), intrathecal injection; assay type: in vivo, rat
Procedure: Experiments were performed with adults male Sprague-Dawley rats, weighing 225-300 g (Charles River laboratories, St Constant, Canada). Rats were housed two per cage on Aspen shavings in a quiet room and kept on a 12 h light/dark cycle and allowed ad libitum access to food and water. The experimental procedures in this study were approved by the Animal Care Committee of Université de Sherbrooke and were in accordance with policies and directives of the Canadian Council on Animal Care.
Rats were lightly anesthetized with isoflurane/oxygen (Baxter corporation, Mississauga, ON, Canada; 2 L/min) flow and injected intrathecally at the L5-L6 intervertebral space with concentrations ranging from 10 to 150 μg/kg of compound 34, 30 μg/kg of PD149163 or 61 nmol/kg of compounds 60, 67, 91 and 116 diluted in 0.9% saline or 0.9% saline alone.
Formalin test: The analgesic effect of compound 34 was assessed using the formalin test as a model of persistent pain. Before testing, animals were acclimatized to manipulations and to plexiglass chambers 30 min/day for three consecutive days. On test day, 5 minutes after intrathecal injection of compounds at increasing doses ranging from 30 to 150 μg/kg (FIGS. 7A-B) or 3 to 60 μg/kg (FIGS. 8A-D), the rats received a 50 μl of diluted 1.85% formaldehyde (i.e. 5% formalin; Bioshop, Burlington, Ontario) into the plantar surface of the right hind paw. […] The intraplantar injection of formalin produced the biphasic nociceptive response typical of this tonic pain model (Tjolsen et al., 1992). […] Nociceptive behavior was assessed using a weighted score as described previously (Dubuisson and Dennis 1977; Codere, 1993). […] The weighted average pain intensity score ranging from 0 to 3 was then calculated by multiplying the time spent in each category by the category weight, summing these products, and dividing by the total time in a given time interval. The pain score was thus calculated from the following formula (1T1+2T2+3T3)/180 where T1, T2, and T3 are the durations (in seconds) spent in behavioral categories 1, 2, or 3, respectively, during each 180 second block. The Area Under the Curve (AUC) was calculated during all the duration of the test (0-60 min). […]
Data are expressed as mean±standard errors of the mean (SEM). […] The % MPE for the tail-flick test and the areas under the curve for the formalin test were analyzed using a one-way ANOVA followed by a Dunnett's multiple comparisons test to compare different concentrations of compounds and saline treatment (FIGS. 2B, 4B, 7A-B and 8B-D). […]

Structure (SMILES)	Hypothermia (i.t.) ([1]; 150 μg/kg i.t.)	Hypotension (i.v.) ([2]; 0.01, 0.1, 1 mg/kg i.v.)	time spent in lifting (Sprague-Dawley rats; acute phase, from 60 μg/kg i.t.)	time spent in lifting (Sprague-Dawley rats; inflammatory phase, from 90 μg/kg i.t.)	Hypothermia (i.t.) ([1]; 209 nmol/kg i.t.)	Hypotension (i.v.) ([2]; 1 mg/kg i.v.)	ED50, formalin test (Sprague-Dawley rats; AUC of pain score, acute and inflammatory phases combined, i.t.)	pain score (Sprague-Dawley rats; all tested doses (from 10 nmol/kg) i.t.)
CC(C)C[C@H](NC(=O)[C@H](Cc1ccc(O)cc1)NC(=O)[C@@H]1CC=CC[C@H](N)C(=O)N[C@@H](CCCCN)C(=O)N[C@@H](CCCCN)C(=O)N1)C(=O)O [compound 34, c[G(All)KKG(All)]YL] (H-[AllylGly]KK[AllylGly]YL-OH; staple 1-4)	no significant variation in body temperature; also recorded: No hypothermia	no significant hypotension	significantly decreased	significantly decreased	–	–	–	–
NCCCC[C@@H]1NC(=O)[C@H](CCCCN)NC(=O)[C@@H](N)CC=CC[C@@H](C(=O)N[C@@H](Cc2ccc(O)cc2)C(=O)N[C@@H](CC2CCCC2)C(=O)O)NC1=O [compound 67, c[G(All)KKG(All)]YA(cyclopentyl)] (H-[AllylGly]KK[AllylGly]Y[Ala(cPent)]-OH; staple 1-4)	–	–	–	–	no significant variation in body temperature; also recorded: No hypothermia	no significant hypotension	30 nmol/kg	significantly decreased

Source: patent US12358948B2, “Neurotensinergic agonists and methods of using same preventing or treating pain” (priority 2019, dated 2025)
